The target in experiment [1] is human full length PDE3A (Homo sapiens (Human), UniProt Q14432). The experiment is described as follows: Assay 4 PDE3A enzyme inhibition (3H-cAMP SPA). It counts as biochemical. Conditions: Sf9 cell extract. The essentials:
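In this SPA format, the 60-min room-temperature reaction used 0.025 μCi [8-3H]cAMP and diluted full-length PDE3A from Sf9 cells. Percentage activity was plotted against log compound concentration to derive IC50.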

For experiment [2], the system named is HeLa cells. The experiment can be described thus: Assay 1 cell proliferation measurement (CTG, 72 h), HeLa. As to conditions: Homo sapiens, HeLa; Assay 1, 72 h, Cell Titer Glo; read-out: HeLa IC50 [nM] (Cervical cancer). The experiment is classed as cell-based, human. The method, boiled down:
(§1)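 Seed cells, incubate overnight at 37 °C; measure baseline viability (CTG, 0 h plate); dose compound in a 10-step 2.5-fold series (max generally 100 nM final, DMSO 0.3%) for 72 h; read CTG luminescence; fit IC50 with 4 parameters.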

Experiment [3] concerns the target human full length PDE3B (Homo sapiens (Human), UniProt Q13370). The experiment is described as follows: Assay 5 PDE3B enzyme inhibition (3H-cAMP SPA). It counts as biochemical. As to conditions: Sf9 cell extract. The method, boiled down:
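Inhibition was measured by scintillation proximity using [8-3H]adenosine 3′,5′-cyclic phosphate as substrate and full-length human PDE3B from an Sf9 overexpression extract, run one hour at room temperature at pH 7.5.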

Experiment [4] deals with SK-MEL-3 cells. The experiment is described as follows: Assay 1 cell proliferation measurement (CTG, 72 h), SK-MEL-3. It counts as cell-based, human. Conditions: Homo sapiens, SK-MEL3; Assay 1, 72 h, Cell Titer Glo; read-out: SK-MEL-3 IC50 [nM] (melanoma). The essentials: as §1

Chain of human full length PDE3A (Q14432 whole entry): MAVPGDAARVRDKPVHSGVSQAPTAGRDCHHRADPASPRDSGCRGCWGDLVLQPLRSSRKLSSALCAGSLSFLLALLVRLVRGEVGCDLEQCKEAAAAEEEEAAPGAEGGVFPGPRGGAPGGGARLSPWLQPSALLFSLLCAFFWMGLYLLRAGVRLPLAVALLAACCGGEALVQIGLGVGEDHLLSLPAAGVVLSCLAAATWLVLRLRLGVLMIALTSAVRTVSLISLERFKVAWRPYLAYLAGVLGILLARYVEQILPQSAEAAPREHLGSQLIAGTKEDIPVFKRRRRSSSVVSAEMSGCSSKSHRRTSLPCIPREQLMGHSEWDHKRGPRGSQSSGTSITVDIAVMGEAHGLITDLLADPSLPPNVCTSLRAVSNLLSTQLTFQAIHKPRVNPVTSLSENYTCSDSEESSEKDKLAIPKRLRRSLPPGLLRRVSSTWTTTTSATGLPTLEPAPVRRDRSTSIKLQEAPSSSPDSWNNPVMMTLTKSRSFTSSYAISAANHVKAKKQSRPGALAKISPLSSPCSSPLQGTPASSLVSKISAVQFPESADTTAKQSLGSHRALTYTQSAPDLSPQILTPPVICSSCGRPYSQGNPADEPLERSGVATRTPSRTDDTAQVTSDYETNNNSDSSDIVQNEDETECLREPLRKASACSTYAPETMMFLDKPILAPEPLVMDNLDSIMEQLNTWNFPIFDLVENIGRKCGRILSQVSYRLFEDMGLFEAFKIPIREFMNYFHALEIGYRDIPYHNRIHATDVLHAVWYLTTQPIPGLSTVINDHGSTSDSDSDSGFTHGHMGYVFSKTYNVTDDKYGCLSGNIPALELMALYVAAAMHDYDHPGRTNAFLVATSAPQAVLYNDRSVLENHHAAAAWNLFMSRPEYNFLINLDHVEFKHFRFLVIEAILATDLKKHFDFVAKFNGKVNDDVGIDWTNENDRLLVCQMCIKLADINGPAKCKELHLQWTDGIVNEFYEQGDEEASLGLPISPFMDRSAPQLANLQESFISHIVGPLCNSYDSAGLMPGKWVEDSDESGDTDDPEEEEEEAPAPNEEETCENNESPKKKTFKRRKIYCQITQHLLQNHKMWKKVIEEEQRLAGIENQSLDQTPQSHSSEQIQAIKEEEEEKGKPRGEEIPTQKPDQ
Chain of human full length PDE3B (Q13370 whole entry): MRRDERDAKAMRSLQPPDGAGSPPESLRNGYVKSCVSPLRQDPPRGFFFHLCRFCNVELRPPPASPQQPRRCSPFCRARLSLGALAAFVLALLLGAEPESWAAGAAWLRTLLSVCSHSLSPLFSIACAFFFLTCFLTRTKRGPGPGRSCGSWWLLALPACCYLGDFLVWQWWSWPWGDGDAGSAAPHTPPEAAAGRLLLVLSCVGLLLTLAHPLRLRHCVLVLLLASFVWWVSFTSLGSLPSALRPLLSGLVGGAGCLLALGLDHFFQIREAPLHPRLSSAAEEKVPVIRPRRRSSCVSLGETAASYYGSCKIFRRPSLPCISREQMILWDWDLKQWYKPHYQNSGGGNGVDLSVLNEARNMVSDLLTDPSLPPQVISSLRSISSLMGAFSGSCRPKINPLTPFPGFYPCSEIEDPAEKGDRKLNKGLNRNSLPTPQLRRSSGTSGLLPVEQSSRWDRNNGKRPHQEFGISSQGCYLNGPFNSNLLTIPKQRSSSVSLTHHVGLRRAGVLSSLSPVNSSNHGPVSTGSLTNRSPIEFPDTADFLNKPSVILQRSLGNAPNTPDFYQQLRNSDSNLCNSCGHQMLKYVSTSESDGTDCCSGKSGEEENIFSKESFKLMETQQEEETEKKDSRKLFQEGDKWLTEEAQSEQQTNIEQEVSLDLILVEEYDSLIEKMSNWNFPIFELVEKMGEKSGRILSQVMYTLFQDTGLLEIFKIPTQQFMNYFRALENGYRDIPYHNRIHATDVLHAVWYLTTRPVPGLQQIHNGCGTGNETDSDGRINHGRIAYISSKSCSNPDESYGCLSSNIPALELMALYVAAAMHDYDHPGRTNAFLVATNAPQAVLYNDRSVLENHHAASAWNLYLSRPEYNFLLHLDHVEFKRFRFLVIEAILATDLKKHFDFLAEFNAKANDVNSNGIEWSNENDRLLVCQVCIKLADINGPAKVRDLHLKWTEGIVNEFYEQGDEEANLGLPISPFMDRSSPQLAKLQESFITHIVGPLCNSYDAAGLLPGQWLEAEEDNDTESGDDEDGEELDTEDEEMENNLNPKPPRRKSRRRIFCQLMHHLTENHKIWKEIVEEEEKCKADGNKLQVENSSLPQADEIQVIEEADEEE

On to `O=C1NN=C(c2ccc(-c3ccc4nccn4c3)c(C(F)(F)F)c2)CO1` [Example 143, 5-[4-(Imidazo[1,2-a]pyridin-6-yl)-3-(trifluoromethyl)phenyl]-3,6-dihydro-2H-1,3,4-oxadiazin-2-one], for which the IC50 amounted to 38 nM in experiment [1], 15 nM in experiment [2], 83 nM in experiment [3] and 30 nM in experiment [4].
On to `Cc1n[nH]cc1-c1ccc(C2=NNC(=O)OC2)cc1C(F)(F)F` [Example 46, 5-[4-(3-Methyl-1H-pyrazol-4-yl)-3-(trifluoromethyl)phenyl]-3,6-dihydro-2H-1,3,4-oxadiazin-2-one], for which the IC50 worked out at 27 nM in experiment [1], 21 nM in experiment [2], 17 nM in experiment [3] and 34 nM in experiment [4].
For `C[C@@H]1OC(=O)NN=C1c1cc(F)c(N2CCOCC2)c(F)c1` [Example 25-2, (6S)-5-(3,5-Difluoro-4-morpholinophenyl)-6-methyl-3,6-dihydro-2H-1,3,4-oxadiazin-2-one] the same measures were 17 nM, 3 nM, 15 nM and 5 nM.
The matching figures for `N#Cc1ccc(-c2ccc(C3=NNC(=O)OC3)cc2F)cc1` [Example 101, 2′-Fluoro-4′-(2-oxo-3,6-dihydro-2H-1,3,4-oxadiazin-5-yl)[1,1′-biphenyl]-4-carbonitrile]: 28 nM, 2 nM, 39 nM and 4 nM.
For `O=C1NN=C(c2ccc(N3CC[C@@H](O)C3)c(C(F)(F)F)c2)CO1` [Example 257, 5-{4-[(3R)-3-Hydroxypyrrolidin-1-yl]-3-(trifluoromethyl)phenyl}-3,6-dihydro-2H-1,3,4-oxadiazin-2-one] the same measures were 75 nM, 6 nM, 120 nM and 9 nM.
On to `COC(C)(C)CNc1ccc(C2=NNC(=O)OC2)cc1C(F)(F)F` [Example 258, 5-{4-[(2-Methoxy-2-methylpropyl)amino]-3-(trifluoromethyl)phenyl}-3,6-dihydro-2H-1,3,4-oxadiazin-2-one], for which the concentration for half-maximal inhibition (IC50) was 41 nM in experiment [1], 3 nM in experiment [2], 130 nM in experiment [3] and 6 nM in experiment [4].
The matching figures for `O=C1NN=C(c2ccc(NCC3CC3)c(C(F)(F)F)c2)CO1` [Example 212, 5-{4-[(Cyclopropylmethyl)amino]-3-(trifluoromethyl)phenyl}-3,6-dihydro-2H-1,3,4-oxadiazin-2-one]: 26 nM, 1 nM, 24 nM and 2 nM.
For `O=C1NN=C(c2ccc(C3=CCOC3)c(C(F)(F)F)c2)CO1` [Example 149, 5-[4-(2,5-Dihydrofuran-3-yl)-3-(trifluoromethyl)phenyl]-3,6-dihydro-2H-1,3,4-oxadiazin-2-one] the same measures were 163 nM, 2 nM, 132 nM and 4 nM.
The matching figures for `O=C1NN=C(c2ccc(NC[C@@H]3CCCO3)c(C(F)(F)F)c2)CO1` [Example 259, 5-[4-({[(2S)-Oxolan-2-yl]methyl}amino)-3-(trifluoromethyl)phenyl]-3,6-dihydro-2H-1,3,4-oxadiazin-2-one]: 34 nM, 1 nM, 110 nM and 3 nM.
For `O=C1NN=C(c2ccc(-c3ccccc3F)c(F)c2)CO1` [Example 114, 5-(2,2′-Difluoro[1,1′-biphenyl]-4-yl)-3,6-dihydro-2H-1,3,4-oxadiazin-2-one], the IC50 in experiment [1] amounted to 92 nM; in experiment [2], 4 nM; in experiment [3], 100 nM; in experiment [4] it was 7 nM.
For `O=C1NN=C(c2ccc(-c3ccccc3O)c(F)c2)CO1` [Example 106, 5-(2-Fluoro-2′-hydroxy[1,1′-biphenyl]-4-yl)-3,6-dihydro-2H-1,3,4-oxadiazin-2-one] the same measures were 120 nM, 9 nM, 240 nM and 16 nM.
For `Cc1n[nH]c(C)c1-c1ccc(C2=NNC(=O)OC2)cc1C(F)(F)F` [Example 128, 5-[4-(3,5-Dimethyl-1H-pyrazol-4-yl)-3-(trifluoromethyl)phenyl]-3,6-dihydro-2H-1,3,4-oxadiazin-2-one] the same measures were 280 nM, above 100 nM, 270 nM and above 100 nM.
The matching figures for `Cc1ccc(-c2ccc(C3=NNC(=O)OC3)cc2C(F)(F)F)cc1N` [Example 42, 5-[3′-Amino-4′-methyl-2-(trifluoromethyl)biphenyl-4-yl]-3,6-dihydro-2H-1,3,4-oxadiazin-2-one]: 170 nM, 55 nM, 250 nM and 64 nM.
On to `C[C@@H]1OC(=O)NN=C1c1ccc(-c2ccc3[nH]ccc3c2)c(C(F)(F)F)c1` [Example 173, (6S)-5-[4-(1H-Indol-5-yl)-3-(trifluoromethyl)phenyl]-6-methyl-3,6-dihydro-2H-1,3,4-oxadiazin-2-one], for which the IC50 was 58 nM in experiment [1], 15 nM in experiment [2], 58 nM in experiment [3] and 27 nM in experiment [4].
As to `O=C1NN=C(c2ccc(-c3csc(C(F)(F)F)c3)c(C(F)(F)F)c2)CO1` [Example 145, 5-{3-(Trifluoromethyl)-4-[5-(trifluoromethyl)thiophen-3-yl]phenyl}-3,6-dihydro-2H-1,3,4-oxadiazin-2-one], the IC50 in experiment [1] amounted to 240 nM; in experiment [2], 27 nM; in experiment [3] it was 410 nM; in experiment [4], 47 nM.
The matching figures for `COc1ccc(-c2ccc(C3=NNC(=O)O[C@H]3C)cc2C(F)(F)F)cc1` [Example 188, (6S)-5-[4′-Methoxy-2-(trifluoromethyl)[1,1′-biphenyl]-4-yl]-6-methyl-3,6-dihydro-2H-1,3,4-oxadiazin-2-one]: 90 nM, 22 nM, 100 nM and 38 nM.
Regarding `Nc1ccc(-c2ccc(C3=NNC(=O)OC3)cc2C(F)(F)F)cc1` [Example 34, 5-[4′-Amino-2-(trifluoromethyl)biphenyl-4-yl]-3,6-dihydro-2H-1,3,4-oxadiazin-2-one], the IC50 in experiment [1] was 100 nM; in experiment [2], 3 nM; in experiment [3] it was 100 nM; in experiment [4] it was 765 nM.
For the compound `CN(c1ccc(C2=NNC(=O)OC2)cc1C(F)(F)F)C1CCCC1` [Example 132, 5-{4-[Cyclopentyl(methyl)amino]-3-(trifluoromethyl)phenyl}-3,6-dihydro-2H-1,3,4-oxadiazin-2-one], the IC50 was determined as 260 nM in experiment [1], 16 nM in experiment [2], 450 nM in experiment [3] and 38 nM in experiment [4].
Turning to `Cc1ccc(-c2ccc(C3=NNC(=O)OC3)cc2C(F)(F)F)nc1` [Example 157, 5-[4-(5-Methylpyridin-2-yl)-3-(trifluoromethyl)phenyl]-3,6-dihydro-2H-1,3,4-oxadiazin-2-one], the IC50 was above 1000 nM in experiment [1], 44 nM in experiment [2], above 1000 nM in experiment [3] and 71 nM in experiment [4].
For the compound `Cc1ccc(-c2ccc(C3=NNC(=O)OC3)cc2OC(F)(F)F)cn1` [Example 70, 5-[4-(6-Methylpyridin-3-yl)-3-(trifluoromethoxy)phenyl]-3,6-dihydro-2H-1,3,4-oxadiazin-2-one], the IC50 in experiment [1] turned out to be 75 nM; in experiment [2] it was 15 nM; in experiment [3], 170 nM; in experiment [4], 29 nM.
The matching figures for `CN1CC=C(c2ccc(C3=NNC(=O)OC3)cc2C(F)(F)F)CC1` [Example 133, 5-[4-(1-Methyl-1,2,3,6-tetrahydropyridin-4-yl)-3-(trifluoromethyl)phenyl]-3,6-dihydro-2H-1,3,4-oxadiazin-2-one]: above 1000 nM, 32 nM, above 1000 nM and 51 nM.
For `CCCCNc1ccc(C2=NNC(=O)OC2)cc1C(F)(F)F` [Example 66, 5-[4-(Butylamino)-3-(trifluoromethyl)phenyl]-3,6-dihydro-2H-1,3,4-oxadiazin-2-one] the same measures were 65 nM, 2 nM, 95 nM and 3 nM.
Consider `Cc1ccncc1-c1ccc(C2=NNC(=O)O[C@H]2C)cc1C(F)(F)F` [Example 182, (6S)-6-Methyl-5-[4-(4-methylpyridin-3-yl)-3-(trifluoromethyl)phenyl]-3,6-dihydro-2H-1,3,4-oxadiazin-2-one], for which the IC50 worked out at 220 nM in experiment [1], 39 nM in experiment [2], 260 nM in experiment [3] and 54 nM in experiment [4].
Consider `O=C1NN=C(c2ccc(NCC3(O)CCC3)c(C(F)(F)F)c2)CO1` [Example 219, 5-[4-{[(1-Hydroxycyclobutyl)methyl]amino}-3-(trifluoromethyl)phenyl]-3,6-dihydro-2H-1,3,4-oxadiazin-2-one], for which the IC50 was found to be 58 nM in experiment [1], 8 nM in experiment [2], 97 nM in experiment [3] and 13 nM in experiment [4].

The values are drawn from patent US11427553B2, “Dihydrooxadiazinones” (Bayer Aktiengesellschaft, priority 2017, dated 2022).
